Assay results reported in ChEMBL document CHEMBL1145697, “Halishigamides AD, New Cytotoxic Oxazole-Containing Metabolites from Okinawan Sponge Halichondria sp” (J Nat Prod, 1997).
In brackets after ≈: the same amount, converted by molar mass.

Assays:
[1] = system: Trichophyton mentagrophytes; assay: Antifungal activity against Trichophyton mentagrophytes; assay type: functional
KB = assay: Cytotoxicity against human KB cells; assay type: functional, cell-based
L1210 = assay: Cytotoxicity against mouse L1210 cells; assay type: functional, cell-based

Compound `CO[C@@H](C[C@@H]1OC(=O)C[C@@H](O)C[C@H](N)CC(=O)[C@H](C)[C@H](OC)c2coc(n2)-c2coc(n2)-c2coc(n2)/C=C/CC[C@H]1C)[C@@H](C)CCC(=O)[C@H](C)[C@@H](C/C=C/N(C)C=O)OC` [HALISHIGAMIDE A] has an MIC [1] of 0.1 µg/mL (≈ 0.117 µM), an IC50 (KB) of 0.012 µg/mL (≈ 0.0141 µM) and an IC50 (L1210) of 0.0036 µg/mL (≈ 0.00422 µM).
Work on `COC(CC1OC(=O)CC(O)C/C=C/C(=O)C(C)C(OC)C(=O)NC(=O)c2coc(n2)-c2coc(n2)/C=C/CCC1C)C(C)CCC(=O)C(C)C(C/C=C/N(C)C=O)OC` (configuration not stated) [HALISHIGAMIDE B] yielded an MIC [1] of 25 µg/mL (≈ 29.7 µM), an IC50 (KB) of 7.5 µg/mL (≈ 8.92 µM) and an IC50 (L1210) of 4.4 µg/mL (≈ 5.23 µM).
For `COC(=O)c1coc(-c2coc(/C=C/CCC(C)C(CC(OC)C(C)CCC(=O)C(C)C(C/C=C/N(C)C=O)OC)OC(=O)CC(O)C/C=C/C(=O)C(C)C(OC)C(N)=O)n2)n1` (configuration not stated) [HALISHIGAMIDE C], the MIC [1] was 25 µg/mL (≈ 28.6 µM), the IC50 (KB) was 6.5 µg/mL (≈ 7.45 µM) and the IC50 (L1210) was 5.2 µg/mL (≈ 5.96 µM).
Work on `COC(=O)c1coc(/C=C/CCC(C)C(CC(OC)C(C)CCC(=O)C(C)C(C/C=C/N(C)C=O)OC)OC(=O)CC(O)C/C=C/C(=O)C(C)C(OC)c2coc(C(N)=O)n2)n1` (configuration not stated) [HALISHIGAMIDE D] yielded an MIC [1] of 6.5 µg/mL (≈ 7.45 µM), an IC50 (KB) of 1.8 µg/mL (≈ 2.06 µM) and an IC50 (L1210) of 1.1 µg/mL (≈ 1.26 µM).
